Measured values taken from paper PMC12381781, “Structural and functional insights into the selective inhibition of mutant tau aggregation by purpurin and oleocanthal in frontotemporal dementia” (Protein Science : A Publication of the Protein Society, 2025).

Experiments:
R2R3 (WT) tau peptide = biological target: T1, R2R3 (WT) tau peptide (Homo sapiens, UniProt P10636); experiment: ThT aggregation assay of monomeric R2R3 (WT) peptide; format: biochemical; details: compound 10 μM; for ThT-stained aggregates, confocal imaging: R2R3 WT, end of ThT assay
T1 construct: Peptides spanning R2R3—including PHF6 and PHF6*; purchased ProteoGenix (Schiltigheim, France); host or cells: chemical synthesis (custom peptide)
Experimental: The aggregation kinetics of tau peptides were monitored using a ThT assay. A 40 μL reaction mixture containing 15 μM ThT (Sigma‐Aldrich, Cat. # T3516‐5G) and 50 μM peptide in the absence (control) or presence of 0.1 μM, 1 μM, and 10 μM PUR or OLC was prepared on ice in aggregation buffer (20 mM Tris [pH 7.4], 100 mM NaCl, 1 mM ethylenediaminetetraacetic acid [EDTA]) containing 5 μM heparin (Sigma‐Aldrich, Cat. #H4784). dithiothreitol (DTT) was excluded to avoid its differential effects on the aggregation kinetics of tau peptides containing Cys291 or Cys322 and to prevent peroxide generation by redox‐active compounds like PUR, which can lead to oxidative artifacts and false‐positive inhibition signals, as reported in our previous study (Annadurai, Malina, Salmona, et al., [2022]). This mixture was then dispensed into a clear‐bottom, black 384‐well ViewPlate (Revvity, Waltham, MA, United States; Part # 6007460) and sealed with a TopSealA‐PLUS (Revvity) to prevent evaporation.
Aggregation was monitored using EnSpire Multimode Plate Reader (Revvity) at 37°C with constant agitation (1000 rpm). […] ThT fluorescence (ThT—λ ex: 460–490 nm and λem: 500–550 nm) was recorded every 5–10 min for 48 h.
ThT fluorescence curves were fitted to a sigmoidal function in GraphPad Prism (version 10, San Diego, CA, USA) using the following equation:
Y=Top/1+expV50–X/Slope , where Y is the ThT fluorescence intensity, X is time (h), Top is the maximum fluorescence intensity, V50 is the time to reach 50% of Top, and Slope describes the steepness of the aggregation transition. Baseline fluorescence at the start of the measurements was relatively low across samples and was not separately fitted. In samples showing early increases in fluorescence, the aggregation trajectory was modeled directly without introducing an independent baseline parameter. […]
To evaluate the effect of compounds on the extent of aggregation, the AUC was calculated for each replicate ThT fluorescence curve using GraphPad Prism. […]

[1] = tested on: Tau RD P301S FRET Biosensor cells; experiment: Biosensor cell seeding assay, post-transduction treatment; format: cell-based; details: for concentrations at which seeding was significantly reduced, post-transduction treatment: P301L fibrils transduced 24 h, then compound for 24 h; for seeding (CFP/YFP inclusions) after post-transduction treatment: WT fibrils transduced 24 h, then compound 0 to 10 μM for 24 h
Experimental: To further evaluate whether PUR and OLC can suppress pathological tau propagation, we performed post‐transduction treatment assays in Tau RD P301S FRET Biosensor cells. WT or P301L tau fibrils were first transduced into cells for 24 h, followed by treatment with PUR or OLC for an additional 24 h. Prior MTS assays confirmed that these concentrations were non‐toxic to biosensor cells (Figure S16).
Tau peptides were aggregated with or without PUR or OLC in a 7.4 pH aggregation buffer without ThT. After 48 h, the contents of each well were pooled to a final total volume of 120 μL. The concentration of the pooled Aggregation Reaction Products was measured using the Pierce™ BCA Protein Assay Kit (Thermo Fisher Scientific Inc., Cat. # 23225). The reaction products were standardized for cell transduction to a final concentration of 100 nM for both control and drug‐treated samples. The pooled aggregation mixture was sonicated using a Branson Ultrasonic™ Sonifier Cup Horns (Marshall Scientific, Hampton, NH, USA) at 30% amplitude (15 s ON and 15 s OFF for 1 min) to fragment larger aggregates into smaller ones, facilitating consistent transduction.
Tau RD P301S FRET Biosensor cells were plated at 5 × 10^3 cells per well in PhenoPlate 384‐well, black, optically clear flat‐bottom plates (Revvity; Part # 6057302) pre‐coated with 50 μg/mL Poly‐ᴅ‐Lysine (Sigma‐Aldrich, Cat. # P6407). After plating, cells were incubated for 30 min at room temperature to promote better cell spreading before returning the plates to the incubator.
The next day, cells were transduced with 100 nM of aggregation mixture, which were either: (i) prepared in the absence (control) or presence of 10 μM PUR or OLC for co‐aggregation studies (Figure 5), or (ii) prepared exclusively in the absence of compounds for post‐transduction treatment studies (Figure 6). The aggregation mixtures were premixed with 0.2 μL per well TurboFect™ Transfection Reagent (Thermo Fisher Scientific Inc., Cat. # R0533) in 10 μL Opti‐MEM™ (Thermo Fisher Scientific Inc., Cat. #11058021) and added to cells.
For co‐aggregation studies (Figure 5), cells were cultured for 48 h after transduction before processing for imaging. […]
Cells were imaged on a Cell Voyager 7000S high‐content imaging system (Yokogawa, Tokyo, Japan) with a 20× objective. CFP/YFP inclusions of seeded tau were detected using a 488 nm laser line (Ex = 460–490 nm, Em = 500–550 nm), and Hoechst‐stained nuclei were detected using a 405 nm laser line (Ex = 360–400 nm, Em = 410–480 nm). […] Image analysis was performed using Signals Image Artist (Revvity) to quantify the number of cells (Hoechst‐stained nuclei) and intracellular CFP/YFP inclusions. […]

T1 sequence (P10636 592-653 limits assumed): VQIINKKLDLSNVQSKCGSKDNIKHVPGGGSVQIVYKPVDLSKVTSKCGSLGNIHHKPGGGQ

SMILES	ThT-stained aggregates, confocal imaging (R2R3 (WT) tau peptide)	concentrations at which seeding was significantly reduced, post-transduction treatment [1] [µM]	seeding (CFP/YFP inclusions) after post-transduction treatment [1]	remaining activity at 10 µM (R2R3 (WT) tau peptide; R2R3 WT 50 μM, read-out: aggregation (% of control), AUC of ThT fluorescence) [%]
C/C=C(/C=O)[C@@H](CC=O)CC(=O)OCCc1ccc(O)cc1 [OLC, oleocanthal]	moderate reduction in fluorescence intensity	≥ 1.25	significantly reduced seeding at all tested concentrations	
O=C1c2ccccc2C(=O)c2c(O)c(O)cc(O)c21 [PUR, purpurin]	moderate reduction in fluorescence intensity	≥ 1.25	significantly reduced seeding at all tested concentrations	63
